Measured values reported in ChEMBL document CHEMBL4706752 (ACS Med Chem Lett, 2021).

Tests used:
[1] = Protein binding in mouse serum assessed as fraction unbound; format: ADME, cell-free; settings: read-out: PB
[2] = Metabolic stability in human liver microsomes assessed as compound remaining after 10 mins; format: ADME, Microsome; settings: read-out: Stabilty
[3] = Decrease in IL-17a gene expression in C57BL/6 mouse model of IL-23 induced acanthosis model of psoriasis at 10 mg/kg, po BID for 10 days by RT-PCR analysis; format: functional; settings: C57BL/6, po, 240 h, time 10 day
[4] = AUC in cynomolgus monkey at 1 mg/kg, iv; format: ADME, organism-based, Macaca fascicularis; parameters: dose 1 mg/kg; settings: in vivo
[5] = test system: Mus musculus; experiment: Antiinflammatory activity in DBA/1J mouse model of collagen-induced arthritis assessed as reduction in plasma IL-6 level at 5 mg/kg, po dosed twice daily for 21 days (reference value: 80 +/- 6 pg/ml); format: functional; settings: time 21 day
[6] = Half life in dog at 1 mg/kg, iv; format: ADME, organism-based, Canis lupus familiaris; settings: in vivo
[7] = test system: Mus musculus; experiment: Antiinflammatory activity in DBA/1J mouse model of collagen-induced arthritis assessed as reduction in plasma IL-6 level at 10 mg/kg, po dosed twice daily for 21 days (reference value: 80 +/- 6 pg/ml); format: functional; settings: time 21 day
[8] = Unbound volume of distribution at steady state in dog at 1 mg/kg, iv; format: ADME, organism-based, Canis lupus familiaris; settings: in vivo
[9] = Tmax in cynomolgus monkey at 2 mg/kg, po; format: ADME, organism-based, Macaca fascicularis; settings: in vivo
[10] = biological target: Cytochrome P450 3A4 (Homo sapiens, UniProt P08684); experiment: Inhibition of CYP3A4 (unknown origin); format: ADME
[11] = test system: Mus musculus; experiment: Antiinflammatory activity in DBA/1J mouse model of collagen-induced arthritis assessed as reduction in arthritic score at 5 to 20 mg/kg, po dosed twice daily for 21 days; format: functional, organism-based; settings: dose 5-20 mg/kg, time 21.0 day
[12] = AUC in Balb/c mouse at 2 mg/kg, iv; format: ADME, organism-based; parameters: dose 2 mg/kg; settings: in vivo
[13] = AUC in dog at 1 mg/kg, iv; format: ADME, organism-based, Canis lupus familiaris; parameters: dose 1 mg/kg; settings: in vivo
[14] = Protein binding in human serum assessed as fraction unbound; format: ADME, cell-free; settings: read-out: PB
[15] = Cmax in cynomolgus monkey at 2 mg/kg, po; format: ADME, organism-based, Macaca fascicularis; parameters: route oral, dose 2 mg/kg; settings: in vivo
[16] = biological target: T1, Nuclear receptor ROR-beta (Homo sapiens, UniProt Q92753); experiment: Inhibition of RORbeta (unknown origin)
T1 sequence (Q92753 whole entry): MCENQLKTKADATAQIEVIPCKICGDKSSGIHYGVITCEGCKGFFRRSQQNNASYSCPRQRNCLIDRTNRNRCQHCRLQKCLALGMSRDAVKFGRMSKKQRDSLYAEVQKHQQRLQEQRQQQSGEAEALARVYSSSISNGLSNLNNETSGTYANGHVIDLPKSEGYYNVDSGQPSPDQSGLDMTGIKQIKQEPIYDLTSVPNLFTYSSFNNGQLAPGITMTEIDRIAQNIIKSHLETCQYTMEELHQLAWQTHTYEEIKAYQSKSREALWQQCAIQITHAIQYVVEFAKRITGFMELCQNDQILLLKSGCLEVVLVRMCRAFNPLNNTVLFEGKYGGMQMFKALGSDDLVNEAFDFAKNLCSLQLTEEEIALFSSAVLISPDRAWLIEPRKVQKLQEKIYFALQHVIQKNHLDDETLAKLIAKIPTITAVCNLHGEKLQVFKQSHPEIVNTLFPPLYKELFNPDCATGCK

[17] = Oral bioavailability in Sprague-Dawley rat at 4 mg/kg; format: ADME, organism-based; settings: in vivo
[18] = Decrease in LCN2 gene expression in C57BL/6 mouse model of IL-23 induced acanthosis model of psoriasis at 10 mg/kg, po BID for 10 days by RT-PCR analysis; format: functional; settings: C57BL/6, po, 240 h, time 10 day
[19] = Half life in Balb/c mouse at 2 mg/kg, iv; format: ADME, organism-based; settings: in vivo
[20] = test system: Mus musculus; experiment: Antiinflammatory activity in DBA/1J mouse model of collagen-induced arthritis assessed as reduction in histological score at 10 mg/kg, po dosed twice daily for 21 days; format: functional; settings: 504 h, time 21 day
[21] = Half life in Sprague-Dawley rat at 2 mg/kg, iv; format: ADME, organism-based; settings: in vivo
[22] = test system: Mus musculus; experiment: Antiinflammatory activity in DBA/1J mouse model of collagen-induced arthritis assessed as reduction in histological score at 20 mg/kg, po dosed twice daily for 21 days; format: functional; settings: 504 h, time 21 day
[23] = biological target: T2, Oxysterols receptor LXR-alpha (Homo sapiens, UniProt Q13133); experiment: Inhibition of LXRalpha (unknown origin)
T2 sequence (Q13133 whole entry): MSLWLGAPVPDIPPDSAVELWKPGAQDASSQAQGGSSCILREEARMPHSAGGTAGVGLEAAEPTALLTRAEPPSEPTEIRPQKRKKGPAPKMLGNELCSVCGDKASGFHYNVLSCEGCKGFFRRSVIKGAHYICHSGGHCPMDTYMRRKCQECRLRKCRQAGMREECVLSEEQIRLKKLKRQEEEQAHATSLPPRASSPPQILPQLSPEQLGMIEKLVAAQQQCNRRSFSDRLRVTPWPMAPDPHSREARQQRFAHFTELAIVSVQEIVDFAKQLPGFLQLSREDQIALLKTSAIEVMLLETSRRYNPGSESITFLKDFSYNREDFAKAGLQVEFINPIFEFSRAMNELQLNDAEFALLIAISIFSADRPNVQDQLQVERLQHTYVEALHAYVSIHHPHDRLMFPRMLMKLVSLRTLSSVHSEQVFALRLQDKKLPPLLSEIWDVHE

[24] = biological target: T3, Nuclear receptor ROR-alpha (Homo sapiens, UniProt P35398); experiment: Inhibition of RORalpha (unknown origin)
T3 sequence (P35398 whole entry): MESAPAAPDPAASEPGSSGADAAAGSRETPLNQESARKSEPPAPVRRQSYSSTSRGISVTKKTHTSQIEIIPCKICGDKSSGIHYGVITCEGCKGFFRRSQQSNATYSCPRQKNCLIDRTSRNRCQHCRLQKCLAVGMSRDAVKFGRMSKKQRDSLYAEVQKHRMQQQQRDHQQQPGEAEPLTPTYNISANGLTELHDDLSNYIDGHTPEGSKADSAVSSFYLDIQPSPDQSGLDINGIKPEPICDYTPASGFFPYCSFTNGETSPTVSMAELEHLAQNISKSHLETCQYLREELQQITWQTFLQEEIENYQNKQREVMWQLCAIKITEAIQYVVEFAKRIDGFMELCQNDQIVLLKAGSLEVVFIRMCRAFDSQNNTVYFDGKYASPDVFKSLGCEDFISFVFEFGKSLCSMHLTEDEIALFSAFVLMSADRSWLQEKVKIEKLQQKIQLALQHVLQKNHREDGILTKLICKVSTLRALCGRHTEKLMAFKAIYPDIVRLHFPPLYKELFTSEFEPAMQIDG

[25] = biological target: Cytochrome P450 2C19 (Homo sapiens, UniProt P33261); experiment: Inhibition of CYP2C19 (unknown origin); format: ADME
[26] = test system: Mus musculus; experiment: Antiinflammatory activity in DBA/1J mouse model of collagen-induced arthritis assessed as reduction in plasma IL-6 level at 20 mg/kg, po dosed twice daily for 21 days (reference value: 80 +/- 6 pg/ml); format: functional; settings: time 21 day
[27] = Decrease in IL-6 gene expression in C57BL/6 mouse model of IL-23 induced acanthosis model of psoriasis at 10 mg/kg, po BID for 10 days by RT-PCR analysis; format: functional; settings: C57BL/6, po, 240 h, time 10 day
[28] = AUC in cynomolgus monkey at 2 mg/kg, po; format: ADME, organism-based, Macaca fascicularis; parameters: dose 2 mg/kg; settings: in vivo

Chain of Cytochrome P450 2C19 (P33261 whole entry): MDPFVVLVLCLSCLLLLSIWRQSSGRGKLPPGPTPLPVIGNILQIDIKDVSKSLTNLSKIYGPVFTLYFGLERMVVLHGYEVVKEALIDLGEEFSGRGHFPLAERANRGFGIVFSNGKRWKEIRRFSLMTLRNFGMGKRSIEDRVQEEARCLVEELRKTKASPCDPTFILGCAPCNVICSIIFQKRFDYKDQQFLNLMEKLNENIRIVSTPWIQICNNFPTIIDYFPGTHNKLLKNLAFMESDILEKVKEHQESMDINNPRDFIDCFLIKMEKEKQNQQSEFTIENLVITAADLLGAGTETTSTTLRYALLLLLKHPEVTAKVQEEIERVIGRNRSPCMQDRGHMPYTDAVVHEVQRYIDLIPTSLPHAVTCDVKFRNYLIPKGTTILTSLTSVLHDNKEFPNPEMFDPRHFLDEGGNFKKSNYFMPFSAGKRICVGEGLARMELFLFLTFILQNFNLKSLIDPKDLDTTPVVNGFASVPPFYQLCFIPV
Chain of Cytochrome P450 3A4 (P08684 whole entry): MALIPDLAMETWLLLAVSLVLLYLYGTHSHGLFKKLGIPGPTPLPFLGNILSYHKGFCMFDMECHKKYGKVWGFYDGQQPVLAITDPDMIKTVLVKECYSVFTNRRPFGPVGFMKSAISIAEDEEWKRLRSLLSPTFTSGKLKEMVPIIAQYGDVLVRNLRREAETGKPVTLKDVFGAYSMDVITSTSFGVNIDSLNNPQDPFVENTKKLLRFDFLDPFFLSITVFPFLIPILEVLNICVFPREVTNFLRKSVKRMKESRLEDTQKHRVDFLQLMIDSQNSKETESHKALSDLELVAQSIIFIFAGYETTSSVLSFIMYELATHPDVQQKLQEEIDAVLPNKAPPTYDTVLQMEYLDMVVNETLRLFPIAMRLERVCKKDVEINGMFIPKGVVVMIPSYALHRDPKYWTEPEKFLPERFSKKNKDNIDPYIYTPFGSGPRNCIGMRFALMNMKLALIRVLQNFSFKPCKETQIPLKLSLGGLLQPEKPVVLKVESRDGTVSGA

fraction unbound [1]: 0.015 | remaining at 10 min [2]: 89% | AUC [4]: 9 µM·h | half-life [6]: 67 h | fVdss [8]: 1.3 L/kg | Tmax [9]: 7 h | IC50 [10]: > 20 µM | AUC [12]: 22.7 µM·h | AUC [13]: 114 µM·h | fraction unbound [14]: 0.022 | Cmax [15]: 600 nM | EC50 [16]: > 10 µM | bioavailability [17]: 85% | half-life [19]: 11 h | half-life [21]: 13 h | EC50 [23]: > 10 µM | EC50 [24]: > 10 µM | IC50 [25]: 19 µM | AUC [28]: 13.2 µM·h
Compound: C[C@@](O)(CS(C)(=O)=O)C(=O)N[C@@H]1CC[C@@]2(S(=O)(=O)c3ccc(F)cc3)c3ccc(C(F)(C(F)(F)F)C(F)(F)F)nc3CC[C@@H]12
inhibition in vivo at 10 mg/kg [3]: 73.8% | Activity [5]: 26 pg/mL | Activity [7]: 19 pg/mL | Activity [11]: Dose-dependent effect | inhibition in vivo at 10 mg/kg [18]: 85.3% | inhibition in vivo at 10 mg/kg [20]: 60% | inhibition in vivo at 20 mg/kg [22]: 55% | Activity [26]: 19 pg/mL | inhibition in vivo at 10 mg/kg [27]: 82.3%
